How the values were obtained:
Assay in all cases: relative viability (nuclei count vs DMSO), 5 days (fraction); higher = more cells survive
Lapatinib + Pemetrexed = compound: CS(=O)(=O)CCNCc1ccc(-c2ccc3ncnc(Nc4ccc(OCc5cccc(F)c5)c(Cl)c4)c3c2)o1 [Lapatinib] + Nc1nc2[nH]cc(CCc3ccc(C(=O)N[C@@H](CCC(=O)O)C(=O)O)cc3)c2c(=O)[nH]1 [Pemetrexed] (partner 0.2 µM)
In short: (§1)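 Dosing by pin tool came one day after lung cancer cell lines were seeded in 1536-well plates, using either one drug or a fixed anchor-drug dose plus five library-drug doses (not always all listed) in √10 steps. After 5 days, nuclei were counted on 4× images. Relative viability is treated-well nuclei count divided by vehicle-well nuclei count, and values are medians of duplicate plates.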

Lapatinib + Linsitinib = compound: CS(=O)(=O)CCNCc1ccc(-c2ccc3ncnc(Nc4ccc(OCc5cccc(F)c5)c(Cl)c4)c3c2)o1 [Lapatinib] + C[C@]1(O)C[C@@H](c2nc(-c3ccc4ccc(-c5ccccc5)nc4c3)c3c(N)nccn32)C1 [Linsitinib] (partner 1 µM)
In short: as §1

Wnt-C59 + Foretinib = compound: CC1=NC=CC(=C1)C2=CC=C(C=C2)CC(=O)NC3=CC=C(C=C3)C4=CN=CC=C4 [Wnt-C59] + COc1cc2c(Oc3ccc(NC(=O)C4(C(=O)Nc5ccc(F)cc5)CC4)cc3F)ccnc2cc1OCCCN1CCOCC1 [Foretinib] (partner 0.25 µM)
In short: as §1

Wnt-C59 + Palbociclib = compound: CC1=NC=CC(=C1)C2=CC=C(C=C2)CC(=O)NC3=CC=C(C=C3)C4=CN=CC=C4 [Wnt-C59] + CC(=O)c1c(C)c2cnc(Nc3ccc(N4CCNCC4)cn3)nc2n(C2CCCC2)c1=O [Palbociclib] (partner 0.5 µM)
In short: as §1

Cell Line	relative viability (Lapatinib + Pemetrexed; first compound 0.02 µM)	relative viability (Lapatinib + Pemetrexed; first compound 0.06325 µM)	relative viability (Lapatinib + Pemetrexed; first compound 0.2 µM)	relative viability (Lapatinib + Pemetrexed; first compound 0.6325 µM)	relative viability (Lapatinib + Pemetrexed; first compound 2 µM)	relative viability (Lapatinib + Linsitinib; first compound 0.02 µM)	relative viability (Lapatinib + Linsitinib; first compound 0.06325 µM)	relative viability (Lapatinib + Linsitinib; first compound 0.2 µM)	relative viability (Lapatinib + Linsitinib; first compound 0.6325 µM)	relative viability (Lapatinib + Linsitinib; first compound 2 µM)	relative viability (Wnt-C59 + Foretinib; first compound 0.001 µM)	relative viability (Wnt-C59 + Foretinib; first compound 0.01 µM)	relative viability (Wnt-C59 + Foretinib; first compound 0.03162 µM)	relative viability (Wnt-C59 + Foretinib; first compound 0.1 µM)	relative viability (Wnt-C59 + Palbociclib; first compound 0.001 µM)	relative viability (Wnt-C59 + Palbociclib; first compound 0.01 µM)	relative viability (Wnt-C59 + Palbociclib; first compound 0.03162 µM)	relative viability (Wnt-C59 + Palbociclib; first compound 0.1 µM)
NCI-H2085	0.743	0.806	0.911	0.847	0.605	0.919	0.89	0.811	0.813	0.62	0.987	0.958	0.88	0.918	0.459	0.425	0.477	0.471
NCI-H2087	0.646	0.636	0.599	0.616	0.513	0.97	0.887	1.01	1.06	0.818	1.1	0.979	0.947	1.01	0.228	0.212	0.245	0.23
NCI-H2126	0.379	0.484	0.655	0.672	0.607	–	0.658	0.685	0.645	0.593	1.2	1.11	1.05	1.25	0.378	0.36	0.35	0.36
NCI-H2228	0.338	0.34	0.312	0.272	0.331	0.662	0.51	0.721	0.881	0.891	0.758	0.778	0.751	0.594	1.06	0.633	0.884	0.869
